Read-outs that look alike come from different tables or passages of the source.
Experiments:
[1] = system: Lovo colon tumour cell line xenograft; test: Lovo xenograft response to gefitinib; format: in vivo; conditions: Lovo xenograft in nude mice
From the text: (§1) This definition is based on the response observed when the tumour cell line is implanted into nude mice and grown as a xenograft. This definition has been used for all the pre-clinical studies described herein. Initially a small panel of six human tumour cell lines were assembled, three which are sensitive to gefitinib and three which are resistant to gefitinib in the xenograft setting defined above. The sensitive cell lines were; • 1.

KB cell line xenograft = test: KB xenograft response to gefitinib; format: in vivo; conditions: KB xenograft in nude mice
From the text: as §1

[2] = system: HT29 colon tumour cell line xenograft; test: HT29 xenograft response to gefitinib; format: in vivo; conditions: HT29 xenograft in nude mice
From the text: as §1

[3] = system: MKN45 gastric tumour cell line xenograft; test: MKN45 xenograft response to gefitinib; format: in vivo; conditions: MKN45 xenograft in athymic mice, oral dosing once daily, mean tumour volume
From the text: as §1

[4] = system: Calu 6 lung tumour cell line xenograft; test: Calu 6 xenograft response to gefitinib; format: in vivo; conditions: Calu 6 xenograft in nude mice
From the text: as §1

[5] = system: PC3 prostate tumour cell line xenograft; test: PC3 xenograft response to gefitinib; format: in vivo; conditions: PC3 xenograft in nude mice
From the text: as §1

[6] = system: BT474 breast tumour cell line xenograft; test: BT474 xenograft response to gefitinib; format: in vivo, nude mice
From the text: (§2) This definition is based on the response observed when the tumour cell line is implanted into nude mice and grown as a xenograft. This definition has been used for all the pre-clinical studies described herein. […] BT474 (ATCC No. HTB-20)-breast tumour cell line • b. DU145 (ATCC No. HTB-81)-[…] tumour cell line • c. MCF7 (ATCC No. HTB-22, sourced from ICRP (now CR-UK), London), -breast tumour cell line • d. GEO colon tumour cell line.

[7] = system: DU145 tumour cell line xenograft; test: DU145 xenograft response to gefitinib; format: in vivo, nude mice
From the text: as §2

[8] = system: MCF7 breast tumour cell line xenograft; test: MCF7 xenograft response to gefitinib; format: in vivo, nude mice
From the text: as §2

[9] = system: GEO colon tumour cell line xenograft; test: GEO xenograft response to gefitinib; format: in vivo, nude mice
From the text: as §2

[10] = system: A549 lung tumour cell line xenograft; test: A549 xenograft response to gefitinib; format: in vivo; conditions: A549 xenograft in athymic mice, oral dosing once daily, mean tumour volume
From the text: as §2

[11] = system: A431 epidermoid cell line xenograft; test: A431 xenograft response to gefitinib; format: in vivo, nude mice
From the text: as §2

[12] = system: HX147 lung tumour cell line xenograft; test: HX147 xenograft response to gefitinib; format: in vivo, nude mice
From the text: (§3) This definition is based on the response observed when the tumour cell line is implanted into nude mice and grown as a xenograft. This definition has been used for all the pre-clinical studies described herein.

[13] = system: RT112 bladder tumour cell line xenograft; test: RT112 xenograft response to gefitinib; format: in vivo, nude mice
From the text: as §3

[14] = system: MiaPac2 pancreatic tumour cell line xenograft; test: MiaPac2 xenograft response to gefitinib; format: in vivo, nude mice
From the text: as §3

[15] = system: MDAMB231 breast tumour cell line xenograft; test: MDAMB231 xenograft response to gefitinib; format: in vivo, nude mice
From the text: as §3

[16] = system: SW620 colon tumour cell line xenograft; test: SW620 xenograft response to gefitinib; format: in vivo, nude mice
From the text: as §3

advanced NSCLC [17] = conditions: cited from earlier work; for Objective response rate (Complete Response+Partial Response): advanced NSCLC previously treated with chemotherapy
advanced NSCLC [18] = conditions: advanced NSCLC previously treated with chemotherapy, cited from earlier work

Question: With `COc1cc2ncnc(Nc3ccc(F)c(Cl)c3)c2cc1OCCCN1CCOCC1` [gefitinib, N-(3-chloro-4-fluorophenyl)-7-methoxy-6-(3-morpholinopropoxy)quinazolin-4-amine] as the compound, how does the “response when grown as a xenograft (sensitive/resistant)” value (from here on “response … (sensitive/resistant)”) [1] read?
Answer: sensitive

Question: And the “response … (sensitive/resistant)” value (KB cell line xenograft)?
Answer: sensitive

Question: And the “response … (sensitive/resistant)” value [2]?
Answer: sensitive

Question: What about the “response … (sensitive/resistant)” value [3] of the same compound?
Answer: resistant

Question: And the “response … (sensitive/resistant)” value [4]?
Answer: resistant

Question: What about the “response … (sensitive/resistant)” value [5] of the same compound?
Answer: resistant

Question: What about the “response … (sensitive/resistant)” value [6] of the same compound?
Answer: sensitive

Question: What about the “response … (sensitive/resistant)” value [7] of the same compound?
Answer: sensitive

Question: And the “response … (sensitive/resistant)” value [8]?
Answer: sensitive

Question: And the “response … (sensitive/resistant)” value [9]?
Answer: sensitive

Question: And the “response … (sensitive/resistant)” value [10]?
Answer: sensitive

Question: And the “response … (sensitive/resistant)” value [11]?
Answer: sensitive

Question: What about the “response … (sensitive/resistant)” value [12] of the same compound?
Answer: resistant

Question: What about the “response … (sensitive/resistant)” value [13] of the same compound?
Answer: resistant

Question: What about the “response … (sensitive/resistant)” value [14] of the same compound?
Answer: resistant

Question: What about the “response … (sensitive/resistant)” value [15] of the same compound?
Answer: resistant

Question: And the “response … (sensitive/resistant)” value [16]?
Answer: resistant

Question: What about the “Objective response rate (Complete Response+Partial Response)” value (advanced NSCLC [17]; IDEAL 1 trial, predominantly Japanese) of the same compound?
Answer: 18.4%

Question: And the “Objective response rate (Complete Response+Partial Response)” value (advanced NSCLC [17]; IDEAL 2 trial, predominantly European-derived population)?
Answer: 11.8%

Question: And the “patients overall benefit (objective response, stable disease and/or symptom improvement)” value (advanced NSCLC [17]; IDEAL trials)?
Answer: approximately 50%

Question: What about the “toxicity” value (advanced NSCLC [17]; single agent, advanced NSCLC patients) of the same compound?
Answer: limited toxicity

Question: With `C#Cc1cccc(Nc2ncnc3cc(OCCOC)c(OCCOC)cc23)c1` [erlotinib] as the compound, how does the prolongs survival (advanced NSCLC [18]; across the population) read?
Answer: ~2 months

Question: What about the “reduction in risk of death at one year” value (advanced NSCLC [18]) of the same compound?
Answer: 41%

Source: patent US20080286771A1, “Method of Predicting the Responsiveness of a Tumour to Erbb Receptor Drugs” (priority 2004, published 2008)
